Measured values as given in publication PMC4880925 (Scientific Reports, 2016).

What was measured:
CYP144A1 [1] = target: T1, CYP144A1 (Mycobacterium tuberculosis, UniProt P9WPL1); type: binding
T1 construct: gene cyp144
Target sequence in this assay (P9WPL1 whole entry): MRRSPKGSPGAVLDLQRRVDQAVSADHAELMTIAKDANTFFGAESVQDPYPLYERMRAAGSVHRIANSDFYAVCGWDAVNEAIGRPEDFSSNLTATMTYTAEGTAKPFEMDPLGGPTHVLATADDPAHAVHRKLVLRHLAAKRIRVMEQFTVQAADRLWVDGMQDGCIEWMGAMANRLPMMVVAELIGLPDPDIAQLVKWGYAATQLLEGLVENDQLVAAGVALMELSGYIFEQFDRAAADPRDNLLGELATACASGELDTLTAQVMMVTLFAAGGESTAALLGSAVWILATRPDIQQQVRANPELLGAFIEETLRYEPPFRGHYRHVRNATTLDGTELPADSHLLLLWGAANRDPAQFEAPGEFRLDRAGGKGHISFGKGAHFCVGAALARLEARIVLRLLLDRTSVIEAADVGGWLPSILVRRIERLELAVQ

CYP144A1 [2] = target: T1, CYP144A1; test: […]; supported by EPR and DSC (Tm […] to […] °C); type: binding
Target sequence in this assay (P9WPL1 31-434): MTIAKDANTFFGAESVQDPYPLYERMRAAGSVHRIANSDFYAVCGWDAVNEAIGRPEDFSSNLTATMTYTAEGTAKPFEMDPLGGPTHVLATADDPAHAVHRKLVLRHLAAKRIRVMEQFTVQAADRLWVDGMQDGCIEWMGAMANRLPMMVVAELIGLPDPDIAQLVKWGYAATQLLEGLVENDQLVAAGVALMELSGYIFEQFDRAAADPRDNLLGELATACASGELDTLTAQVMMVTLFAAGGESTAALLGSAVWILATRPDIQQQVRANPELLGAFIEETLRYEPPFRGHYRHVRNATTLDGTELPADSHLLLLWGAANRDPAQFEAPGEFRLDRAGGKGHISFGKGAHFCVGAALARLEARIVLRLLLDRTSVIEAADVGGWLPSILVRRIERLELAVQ

SMILES	differential scanning calorimetry, Tm raised from 47 to 50 °C (CYP144A1 [1])	Kd (CYP144A1 [2])
Clc1ccccc1C(c1ccccc1)(c1ccccc1)n1ccnc1 [clotrimazole]	50 °C	
Clc1ccc(COC(Cn2ccnc2)c2ccc(Cl)cc2Cl)cc1 (centres unmarked) [econazole]		720 ± 180 nM
